Read-outs that look alike come from different tables or passages of the source.
Columns and labels:
Format in all cases: biochemical
cdc2/cyclinB = cdc2/cyclinB (Homo sapiens, UniProt P06493); experiment: Cyclin-dependent kinase assay (cdc2/cyclinB); details: Table 1; read-out: cdk1/B IC50
Method: (§1) All components except the ATP were added to the wells, and the plate was placed on a plate mixer for 2 minutes. […] The reaction was terminated by addition of 0.1 mL of 20% TCA. The plate was kept at 4°C for at least 1 hour to allow the substrate to precipitate. The wells were then washed five times with 0.2 mL of 10% TCA and ^32P incorporation determined with a beta plate counter (Wallac Inc., Gaithersburg, MD).

cdk2/cyclinA = cdk2/cyclinA (Homo sapiens, UniProt P24941); experiment: Cyclin-dependent kinase assay (cdk2/cyclinA); details: Table 1
Method: as §1

cdk2/cyclinE = cdk2/cyclinE (Homo sapiens, UniProt P24941); experiment: Cyclin-dependent kinase assay (cdk2/cyclinE); details: Table 1; read-out: cdk2/E IC50
Method: as §1

cdk4/D = cdk4/D (Homo sapiens, UniProt P11802); experiment: Cyclin-dependent kinase 4 (cdk4) enzyme assay, 32P incorporation into retinoblastoma; details: for inhibition at 40 µM: read-out: cdk4/D % inhibition at 40 µM
Method: A typical assay, for instance, measures inhibitory activity against the cyclin D dependent kinase 4 enzyme (cdk4/D). […] The cdk 4 assay was carried out as follows.
as §1, with “trichloroacetic acid (TCA).” for “TCA.”, “incorporation was” for “incorporation”

[1] = Table 1, 25 µM ATP, retinoblastoma substrate

Sequence of cdc2/cyclinB (P06493 whole entry): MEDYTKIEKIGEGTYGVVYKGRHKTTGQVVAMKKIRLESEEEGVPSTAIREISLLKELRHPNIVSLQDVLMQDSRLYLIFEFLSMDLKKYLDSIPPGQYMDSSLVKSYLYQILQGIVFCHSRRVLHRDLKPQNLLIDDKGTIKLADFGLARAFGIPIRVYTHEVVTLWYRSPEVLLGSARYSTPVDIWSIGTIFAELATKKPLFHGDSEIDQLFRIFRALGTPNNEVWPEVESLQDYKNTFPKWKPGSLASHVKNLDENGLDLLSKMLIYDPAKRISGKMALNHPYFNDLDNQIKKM
Sequence of cdc2/cyclinB (P14635 whole entry, further chain): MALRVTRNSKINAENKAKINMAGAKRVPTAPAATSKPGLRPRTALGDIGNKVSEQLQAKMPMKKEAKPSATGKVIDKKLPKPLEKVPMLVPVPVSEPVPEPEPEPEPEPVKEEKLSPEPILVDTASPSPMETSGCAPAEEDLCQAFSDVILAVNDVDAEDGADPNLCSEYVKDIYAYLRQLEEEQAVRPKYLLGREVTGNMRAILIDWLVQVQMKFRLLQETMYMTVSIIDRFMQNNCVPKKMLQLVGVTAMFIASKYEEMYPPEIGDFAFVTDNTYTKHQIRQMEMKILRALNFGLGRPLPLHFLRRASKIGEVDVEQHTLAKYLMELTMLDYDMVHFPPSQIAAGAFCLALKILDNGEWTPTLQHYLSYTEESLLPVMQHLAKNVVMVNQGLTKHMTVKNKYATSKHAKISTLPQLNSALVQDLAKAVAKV
Sequence of cdk4/D (P11802 whole entry): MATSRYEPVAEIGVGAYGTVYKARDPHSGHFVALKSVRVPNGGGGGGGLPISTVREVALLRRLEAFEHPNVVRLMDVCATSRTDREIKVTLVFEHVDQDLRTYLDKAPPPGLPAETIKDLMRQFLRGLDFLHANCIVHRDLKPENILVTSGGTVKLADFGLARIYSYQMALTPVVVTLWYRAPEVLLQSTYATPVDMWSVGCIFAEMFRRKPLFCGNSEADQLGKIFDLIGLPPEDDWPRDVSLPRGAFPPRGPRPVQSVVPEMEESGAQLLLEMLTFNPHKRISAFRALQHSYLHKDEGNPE
Sequence of cdk4/D (P24385 whole entry, further chain): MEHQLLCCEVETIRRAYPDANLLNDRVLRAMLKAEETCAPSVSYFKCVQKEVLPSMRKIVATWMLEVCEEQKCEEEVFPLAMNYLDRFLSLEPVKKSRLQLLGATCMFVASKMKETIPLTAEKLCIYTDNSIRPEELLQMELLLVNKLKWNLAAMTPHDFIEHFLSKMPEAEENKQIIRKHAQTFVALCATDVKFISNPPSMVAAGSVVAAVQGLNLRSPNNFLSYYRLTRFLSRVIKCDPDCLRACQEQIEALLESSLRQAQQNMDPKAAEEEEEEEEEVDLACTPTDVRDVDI

Row | IC50 (cdc2/cyclinB) | IC50 (cdk2/cyclinA) | IC50 (cdk2/cyclinE) | IC50 (cdk4/D; [1]) | Structure (SMILES) | further results
1 | 32600 nM | 4660 nM | 12800 nM |  | O=c1ccc2cnc(Nc3ccccc3)nc2[nH]1 [Example 32, 2-Phenylamino-8H-pyrido[2,3-d]pyrimidin-7-one] | 
2 |  |  |  | 4200 nM | COCn1c(=O)ccc2cnc(Nc3ccccc3)nc21 [Example 37, 8-Methoxymethyl-2-phenylamino-8H-pyrido[2,3-d]pyrimidin-7-one] | 
3 |  |  |  | 5000 nM | O=c1ccc2cnc(Nc3ccccc3)nc2n1CC1CO1 (stereo not drawn) [Example 39, 8-Oxiranylmethyl-2-phenylamino-8H-pyrido[2,3-d]pyrimidin-7-one] | 
4 | 440 nM | 31 nM | 126 nM | 150 nM | CC(C)n1c(=O)ccc2cnc(Nc3ccccc3)nc21 [Example 43, 8-Isopropyl-2-phenylamino-8H-pyrido[2,3-d]pyrimidin-7-one] | 
5 | 16700 nM | 6460 nM |  |  | CCn1c(=O)ccc2cnc(NCc3ccccc3)nc21 [Example 44, 2-Benzylamino-8-ethyl-8H-pyrido[2,3-d]pyrimidin-7-one] | 
6 | 9230 nM | 2460 nM | 3930 nM | 12000 nM | CCNc1ncc2ccc(=O)n(CC)c2n1 [Example 45, 8-Ethyl-2-ethylamino-8H-pyrido[2,3-d]pyrimidin-7-one] | 
7 | 3410 nM |  |  | 5300 nM | CCn1c(=O)ccc2cnc(NC(C)(C)C)nc21 [Example 46, 2-tert-Butylamino-8-ethyl-8H-pyrido[2,3-d]pyrimidin-7-one] | 
8 | 3550 nM |  |  | 3700 nM | CCn1c(=O)ccc2cnc(NC(C)C)nc21 [Example 47, 8-Ethyl-2-isopropylamino-8H-pyrido[2,3-d]pyrimidin-7-one] | 
9 | 2610 nM | 230 nM | 592 nM | 3300 nM | CCn1c(=O)ccc2cnc(NC3CCCCC3)nc21 [Example 48, 2-Cyclohexylamino-8-ethyl-8H-pyrido[2,3-d]pyrimidin-7-one] | 
10 |  |  |  | 2000 nM | CCn1c(=O)ccc2cnc(Nc3ccc(-c4ccccc4)cc3)nc21 [Example 49, 2-(Biphenyl-4-ylamino)-8-ethyl-8H-pyrido[2,3-d]pyrimidin-7-one] | 
11 | 665 nM | 134 nM | 422 nM | 600 nM | CCn1c(=O)ccc2cnc(Nc3ccc(OC)cc3)nc21 [Example 51, 8-Ethyl-2-(4-methoxyphenylamino)-8H-pyrido[2,3-d]pyrimidin-7-one] | 
12 | 1880 nM | 339 nM | 1190 nM | 85 nM | CCn1c(=O)ccc2cnc(Nc3ccc(N4CCN(C)CC4)cc3)nc21 [Example 53, 8-Ethyl-2-[4-(4-methylpiperazin-1-yl)-phenylamino]-8H-pyrido[2,3-d]pyrimidin-7-one] | 
13 | 91 nM | 238 nM | 1200 nM | 7830 nM | CCn1c(=O)ccc2cnc(Nc3cccc(OC(F)(F)C(F)F)c3)nc21 [Example 54, 8-Ethyl-2-[3-(1,1,2,2-tetrafluoroethoxy)-phenylamino]-8H-pyrido[2,3-d]pyrimidin-7-one] | 
14 |  |  |  | 600 nM | CCn1c(=O)ccc2cnc(Nc3ccc(O)cc3)nc21 [Example 55, 8-Ethyl-2-(4-hydroxyphenylamino)-8H-pyrido[2,3-d]pyrimidin-7-one] | 
15 |  |  |  | 25000 nM | CCn1c(=O)ccc2cnc(Nc3ccc(OCc4ccccc4)cc3)nc21 [Example 56, 2-Benzyloxyphenylamino-8-ethyl-8H-pyrido[2,3-d]pyrimidin-7-one] | 
16 |  |  |  | 800 nM | CCn1c(=O)ccc2cnc(Nc3ccc(OCCOC)cc3)nc21 [Example 57, 8-Ethyl-2-[4-(2-methoxyethoxy)phenylamino]-8H-pyrido[2,3-d]pyrimidin-7-one] | 
17 |  |  |  | 10000 nM | COc1ccc(Cn2c(=O)ccc3cnc(Nc4ccccc4)nc32)cc1 [Example 58, 8-(4-Methoxybenzyl)-2-phenylamino-8H-pyrido[2,3-d]pyrimidin-7-one] | 
18 | 1760 nM | 490 nM | 860 nM | 6900 nM | Cn1c(=O)ccc2cnc(Nc3ccccc3)nc21 [Example 61, 8-Methyl-2-phenylamino-8H-pyrido[2,3-d]pyrimidin-7-one] | 
19 | 21600 nM | 38100 nM |  |  | Cn1c(=O)ccc2cnc(NCc3ccccc3)nc21 [Example 63, 2-Benzylamino-8-methyl-8H-pyrido[2,3-d]pyrimidin-7-one] | 
20 |  |  |  | 40000 nM | CCCCNc1ncc2ccc(=O)n(C)c2n1 [Example 64, 2-Butylamino-8-methyl-8H-pyrido[2,3-d]pyrimidin-7-one] | 
21 |  |  |  | 45000 nM | Cn1c(=O)ccc2cnc(NCCc3ccccn3)nc21 [Example 66, 8-Methyl-2-(2-pyridin-2-yl-ethylamino)-8H-pyrido[2,3-d]pyrimidin-7-one] | 

Row | IC50 (cdc2/cyclinB) | IC50 (cdk2/cyclinA) | IC50 (cdk2/cyclinE) | IC50 (cdk4/D; [1]) | Structure (SMILES) | further results
22 |  |  |  | 25000 nM | CC(C)Nc1ncc2ccc(=O)n(C)c2n1 [Example 67, 2-Isopropylamino-8-methyl-8H-pyrido[2,3-d]pyrimidin-7-one] | 
23 |  |  |  |  | CCNc1nc(Nc2ccccc2)ncc1CCC(=O)OCC [Example 68, 3-(4-Ethylamino-2-phenylamino-pyrimidin-5-yl)propionic acid ethyl ester] | IC50 (cdk4/D; Table 2, Formula II compounds): 90000 nM; inhibition at 40 µM (cdk4/D; at 40 µM, Table 2): 37%
24 |  |  |  | 4300 nM | CCN1C(=O)CCc2cnc(Nc3ccccc3)nc21 [Example 69, 8-Ethyl-2-phenylamino-5,8-dihydro-6H-pyrido[2,3-d]pyrimidin-7-one] | 
25 |  |  |  |  | CCNc1nc(Nc2ccccc2)ncc1C=CC#N [Example 72, 3-(4-Ethylamino-2-phenylamino-pyrimidin-5-yl)acrylonitrile] | inhibition at 40 µM (cdk4/D): 18%
26 |  |  |  |  | CCNc1nc(Nc2ccccc2)ncc1C(C)=CC(=O)OCC [Example 73, 3-(4-Ethylamino-2-phenylamino-pyrimidin-5-yl)-but-2-enoic acid ethyl ester] | inhibition at 40 µM (cdk4/D; at 40 µM, Table 2): 58%
27 |  |  |  | 141 nM | CCC(CC)n1c(=O)ccc2cnc(Nc3ccccc3)nc21 [Example 74, 8-(1-Ethylpropyl)-2-phenylamino-8H-pyrido[2,3-d]pyrimidin-7-one] | 
28 | 141 nM | 28 nM | 68 nM | 14 nM | CCC(CC)n1c(=O)ccc2cnc(Nc3ccc(N4CCN(C)CC4)cc3)nc21 [Example 77, 8-(1-Ethylpropyl)-2-[4-(4-methylpiperazin-1-yl)-phenylamino]-8H-pyrido[2,3-d]pyrimidin-7-one] | 
29 | 740 nM | 2240 nM | 2940 nM | 1300 nM | CCN(CC)c1ccc(Nc2ncc3ccc(=O)n(CC)c3n2)cc1 [Example 78, 2-(4-Diethylamino-phenylamino)-8-ethyl-8H-pyrido[2,3-d]pyrimidin-7-one] | 
30 |  |  |  | 300 nM | CCn1c(=O)ccc2cnc(Nc3ccc(N4CCOCC4)cc3)nc21 [Example 79, 8-Ethyl-2-(4-morpholin-4-yl-phenylamino)-8H-pyrido[2,3-d]pyrimidin-7-one] | 
31 |  |  |  | 1800 nM | CCn1c(=O)c(C)cc2cnc(Nc3ccccc3)nc21 [Example 83, 8-Ethyl-6-methyl-2-phenylamino-8H-pyrido[2,3-d]pyrimidin-7-one] | 
32 |  |  |  | 200 nM | CCC(C)n1c(=O)ccc2cnc(Nc3ccccc3)nc21 (stereo not drawn) [Example 85, 8-sec-Butyl-2-phenylamino-8H-pyrido[2,3-d]pyrimidin-7-one] | 
33 |  |  |  | 2400 nM | COCCn1c(=O)ccc2cnc(Nc3ccccc3)nc21 [Example 86, 8-(2-Methoxyethyl)-2-phenylamino-8H-pyrido[2,3-d]pyrimidin-7-one] | 
34 | 1080 nM |  |  |  | O=c1ccc2cnc(Nc3ccccc3)nc2n1CCCOc1ccccc1 [Example 87, 8-(3-Phenoxypropyl)-2-phenylamino-8H-pyrido[2,3-d]pyrimidin-7-one] | 
35 | 2070 nM | 440 nM | 280 nM | 1300 nM | CCn1c(=O)ccc2cnc(Nc3ccc(F)cc3)nc21 [Example 88, 8-Ethyl-2-(4-fluorophenylamino)-8H-pyrido[2,3-d]pyrimidin-7-one] | 
36 |  |  |  | 1400 nM | CCn1c(=O)ccc2cnc(Nc3cccc(F)c3)nc21 [Example 89, 8-Ethyl-2-(3-fluorophenylamino)-8H-pyrido[2,3-d]pyrimidin-7-one] | 
37 |  |  |  | 1000 nM | CCn1c(=O)ccc2cnc(Nc3ccc(OC)c(F)c3)nc21 [Example 90, 8-Ethyl-2-(3-fluoro-4-methoxyphenylamino)-8H-pyrido[2,3-d]pyrimidin-7-one] | 
38 |  |  |  | 9000 nM | CCn1c(=O)ccc2cnc(Nc3cccc(F)c3OC)nc21 [Example 91, 8-Ethyl-2-(3-fluoro-2-methoxyphenylamino)-8H-pyrido[2,3-d]pyrimidin-7-one] | 
39 | 780 nM | 280 nM | 1770 nM | 380 nM | CCn1c(=O)ccc2cnc(Nc3ccc(N(C)C)cc3)nc21 [Example 93, 2-(4-Dimethylamino-phenylamino)-8-ethyl-8H-pyrido[2,3-d]pyrimidin-7-one] | 
40 |  |  |  | 19000 nM | CCNc1ncc2ccc(=O)n(-c3ccccc3)c2n1 [Example 100, 2-Ethylamino-8-phenyl-8H-pyrido[2,3-d]pyrimidin-7-one] | 
41 | 65 nM | 9 nM | 24 nM | 182 nM | O=c1ccc2cnc(Nc3ccccc3)nc2n1C1CCCCCC1 [Example 155, 8-Cycloheptyl-2-phenylamino-8H-pyrido[2,3-d]pyrimidin-7-one] | 
